Patent US20030119813A1, “Derivatives of pyrimido[6,1-a]isoquinolin-4-one” (priority 2001, published 2003)

Assays:
[1] = tested on: LPS induced TNF-α release from human monocytes; assay: LPS induced TNF-α release from human monocytes; assay type: cell-based; settings: Monocyte
Protocol: 6,7-Dihydro-2-(2,6-diisopropylphenoxy)-9,10-dimethoxy-4H-pyrimido-[6,1-a]isoquinolin-4-one (compound of Example 2) was tested for effects on LPS induced TNF-α release from human monocytes.

[2] = tested on: guinea-pig isolated trachea; assay: Superfusion of guinea-pig tracheal rings, contraction to electrical field stimulation; settings: for inhibition of contractile responses, duration of action: electrical-induced contraction of guinea-pig isolated trachea; for OT50 (onset time: time to reach 50% of the maximum inhibition of the contractile response) / RT50 (recovery time: time for 50% reversal of the maximum inhibition after terminating exposure): superfused guinea-pig trachea, electrical field stimulation, 10 μM; for OT50 (onset time: time to reach 50% of the maximum inhibition of the contractile response): mean and s.e. mean of three observations; for RT50 (recovery time: time for 50% reversal of the maximum inhibition after terminating exposure): washout
Protocol: Superfusion of guinea-pig tracheal rings was performed according to a previously described method (Coleman et al. Pulmonary Pharmacology 9 107-117 (1996)). Briefly, guinea-pig tracheal preparations were cut into rings and then opened by sectioning the ring opposite the smooth muscle and suspended between two platinum electrodes under 1 g tension. The tissues were superfused at a rate of from 1 to 3.25 ml/min with Krebs-Henseleit solution at 37° C. containing the cyclooxygenase inhibitor, indomethacin (5 μM) and bubbled with 95% O2 and 5% CO2. Tracheal preparations were allowed to equilibrate for 40 minutes before commencement of electrical stimulation, delivered as a 10 s train of square wave pulses at 3 Hz, 0.1 ms duration and 20V (approx 400 mamps) generated every 100 sec by means of physiological square wave-stimulator. The compounds of the present invention were superfused at a rate of 0.2 to 0.3 ml/min ad contractile responses to electrical field stimulation were recorded on a Macintosh computer using MacLab sor vare. The drug was prepared in DMSO and diluted in Krebs-Henseleit solution which yielded a final superfusion concentration of 0.05 to 0.1% DMSO.
The duration of action was determined and expressed as onset time (OT50) and recovery time (RT50).

[3] = tested on: guinea-pig tracheal rings; assay: Organ bath experiments, guinea-pig tracheal rings, electrical field stimulation; settings: final concentration 10 μM, n=1
Protocol: Guinea-pig tracheal rings were suspended in organ baths under 1 g tension between two electrodes and subjected to electrical field stimulation (3 Hz, 0.1 ms duration and 20V (approx 400 mAmps) generated every 100 sec by means of physiological square wave-stimulator. The compounds of Examples 1, 2 and 8 were dissolved in DMSO containing Tween 80 (10%) and distilled water (0.01M), which were then added to the organ bath to give a final concentration of 10 μM.

[4] = tested on: human mononuclear cells stimulated by PHA; assay: Proliferation of human mononuclear cells stimulated by PHA ([3H]-thymidine); assay type: cell-based; settings: PHA 2 μg/ml, n=6, read-out: IC50 against proliferation of human mononuclear cells stimulated with PHA
Protocol: Normal healthy volunteers underwent phlebotomy and 25 ml of blood was collected. Mononuclear cells were separated and purified according to the method of Banner et al. (Banner et al. Br. J. Pharmacol. 116 3169-3174 (1995)). Human peripheral mononuclear cells (100,000 per well) were stimulated for 24 h with phytohaemagglutinin (PHA, 2 μg/ml) in the absence or presence of the compounds of Examples 1, 2 and 8 (0.001-100 μM) at 37° C. in a 95% air, 5% CO2 atmosphere. Twenty four hours later, [^3H]-thymidine (0.1 μCi) was added to each well and the cells were incubated for a further 24 h period. Cells were then harvested onto glass fibre filters using a cell harvester (ICN Flow, Buckinghamshire) and counted in a scintillation counter.

[5] = molecular target: T1, PDE3 (human platelet) (Homo sapiens, UniProt Q14432); assay: PDE3 inhibition; assay type: biochemical
T1 construct: (human platelet); from tissue; host or cells: human platelets
T1 sequence (Q14432 whole entry): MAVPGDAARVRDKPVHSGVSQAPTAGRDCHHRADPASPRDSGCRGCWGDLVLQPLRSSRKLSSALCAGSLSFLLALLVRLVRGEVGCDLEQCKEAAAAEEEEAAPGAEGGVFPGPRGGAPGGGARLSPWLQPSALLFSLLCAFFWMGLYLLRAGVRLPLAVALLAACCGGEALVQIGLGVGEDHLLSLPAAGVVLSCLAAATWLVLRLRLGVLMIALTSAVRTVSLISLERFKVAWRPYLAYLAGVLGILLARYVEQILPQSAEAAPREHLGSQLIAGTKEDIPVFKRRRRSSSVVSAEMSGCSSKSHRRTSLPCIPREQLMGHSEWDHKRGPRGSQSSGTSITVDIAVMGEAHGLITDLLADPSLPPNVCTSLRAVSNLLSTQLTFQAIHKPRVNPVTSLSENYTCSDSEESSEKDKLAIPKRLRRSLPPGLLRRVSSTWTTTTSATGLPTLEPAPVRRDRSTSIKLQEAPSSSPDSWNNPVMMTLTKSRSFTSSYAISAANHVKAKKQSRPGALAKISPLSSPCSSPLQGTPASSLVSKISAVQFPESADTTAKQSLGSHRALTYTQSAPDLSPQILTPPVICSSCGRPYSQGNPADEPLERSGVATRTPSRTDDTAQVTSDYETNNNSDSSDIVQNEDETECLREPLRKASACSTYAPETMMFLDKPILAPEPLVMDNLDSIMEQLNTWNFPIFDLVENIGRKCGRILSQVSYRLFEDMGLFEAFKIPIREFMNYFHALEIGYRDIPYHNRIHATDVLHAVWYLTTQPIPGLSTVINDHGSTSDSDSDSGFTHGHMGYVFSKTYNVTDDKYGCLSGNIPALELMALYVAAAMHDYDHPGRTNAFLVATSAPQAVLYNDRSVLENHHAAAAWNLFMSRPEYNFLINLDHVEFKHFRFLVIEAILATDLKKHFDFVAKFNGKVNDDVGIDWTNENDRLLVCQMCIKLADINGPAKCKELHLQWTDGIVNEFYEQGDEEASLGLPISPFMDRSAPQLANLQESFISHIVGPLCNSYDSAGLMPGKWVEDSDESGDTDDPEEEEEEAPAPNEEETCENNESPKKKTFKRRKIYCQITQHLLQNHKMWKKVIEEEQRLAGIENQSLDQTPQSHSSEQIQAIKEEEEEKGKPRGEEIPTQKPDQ

[6] = tested on: PDE4 (human neutrophil); assay: PDE4 inhibition; assay type: biochemical
[7] = tested on: histamine induced bronchospasm; assay: Histamine induced bronchospasm, inhaled dry powder, guinea-pig; assay type: in vivo
Protocol: 1. The above compound was tested in a model of histamine induced bronchospasm. Conscious guinea-pigs were exposed to dry powder (micronised) of the compound. The drug was blended with lactose so that the final concentration was 0.25, 2.5 and 25%. At various times after exposure to drug the animals were anaesthetised and challenged with varying doses of histamine. Total airway resistance and mean arterial blood pressure were recorded.

[8] = tested on: mean arterial blood pressure; assay: Intravenous administration to urethane anaesthetised guinea-pigs, mean arterial blood pressure; assay type: in vivo, guinea-pig; settings: 0.1 to 300 μg/kg
Protocol: 2. […] The compound was dissolved in DMSO then diluted with saline (there was evidence that the compound had come out of solution).

[9] = tested on: recruitment of eosinophils to the lungs; assay: Antigen induced eosinophilia in the ovalbumin sensitised guinea-pig; assay type: in vivo; settings: 10 mg/kg orally 1 hour prior to antigen challenge, ovalbumin sensitised guinea-pigs

| SMILES | inhibition of contractile responses, duration of action [2] | OT50 (onset time: time to reach 50% of the maximum inhibition of the contractile response) [2] | RT50 (recovery time: time for 50% reversal of the maximum inhibition after terminating exposure) [2] | further results |
| --- | --- | --- | --- | --- |
| COc1ccc([C@H](Cc2ccncc2)c2ccccc2)cc1OC1CCCC1 [CDP 840] | – | – | – | IC50 ([1]; n = 6): 92 nM |
| COc1cc2c(cc1OC)-c1cc(Oc3ccccc3CC(C)C)nc(=O)n1CC2 [Example 10, 9,10-Dimethoxy-2-(2-isobutylphenoxy)-6,7-dihydro-4H-pyrimido[6,1-a]isoquinolin-4-one] | inhibit the contractile responses with a long duration of action | 17.5 ± 1.25 min | >300 min | – |
| COc1cc2c(cc1OC)-c1cc(=Nc3c(C)cc(C)cc3C)n(C)c(=O)n1CC2 [Trequinsin, 9,10-dimethoxy-3-methyl-2-mesitylimino-2,3,6,7-tetrahydro-4H-pyrimido[6,1-a]isoquinolin-4-one, reference compound] | – | 14 min | 146 min | – |
| CCc1ccccc1Oc1cc2n(c(=O)n1)CCc1cc(OC)c(OC)cc1-2 [Example 12, 9,10-Dimethoxy-2-(2-ethylphenoxy)-6,7-dihydro-4H-pyrimido[6,1-a]isoquinolin-4-one] | inhibit the contractile responses with a long duration of action | 9.7 ± 0.6 min | 263 min | – |
| COc1cc2c(cc1OC)-c1cc(Oc3ccccc3C3CCCC3)nc(=O)n1CC2 [Example 13, 2-(2-Cyclopentylphenoxy)-9,10-dimethoxy-6.7-dihydro-4H-pyrimido[6,1-a]-isoquinolin-4-one] | inhibit the contractile responses with a long duration of action | 18.6 ± 1.5 min | >300 min | – |
| CN/C(=N\c1ccc(C2=NNC(=O)CC2C)cc1)NC#N (centres unmarked) [Siguazodan] | – | – | – | IC50 ([1]; unit printed in the cell beside the value): > 100000 nM |
| CCc1cccc(CC)c1Oc1cc2n(c(=O)n1)CCc1cc(OC)c(OC)cc1-2 [Example 3, 2-(2,6-diethylphenoxy)-6,7-dihydro-9,10-dimethoxy-4H-pyrimido-[6,1-a]isoquinolin-4-one] | inhibit the contractile responses with a long duration of action | 17 ± 1 min | >240 min | – |
| COc1cc2c(cc1OC)-c1cc(Oc3c(Cl)cccc3Cl)nc(=O)n1CC2 [Example 8, 2-(2,6-Dichlorophenoxy)-6,7-dihydro-9,10-dimethoxy-4H-pyrimido-[6,1-a]isoquinolin-4-one] | – | – | – | inhibition of the contractile response to electrical field stimulation [3]: complete inhibition; IC50 [4]: 8220 nM |
| COc1cc2c(cc1OC)-c1cc(Oc3c(C)cccc3C)nc(=O)n1CC2 [Example 1, 6,7-Dihydro-2-(2,6-dimethylphenoxy)-9,10-dimethoxy-4H-pyrimido-[6,1-a]isoquinolin-4-one] | – | – | – | inhibition of the contractile response to electrical field stimulation [3]: complete inhibition; IC50 [4]: 5130 nM |
| COc1cc2c(cc1OC)-c1cc(Oc3ccccc3C(C)(C)C)nc(=O)n1CC2 [Example 11, 2-(2-tert-butylphenoxy)-9,10-dimethoxy-6,7-dihydro-4H-pyrimido[6,1-a]isoquinolin-4-one] | inhibit the contractile responses with a long duration of action | 14.7 ± 1.33 min | >300 min | – |
| COc1cc2c(cc1OC)-c1cc(Oc3c(C(C)C)cccc3C(C)C)nc(=O)n1CC2 [Example 2, 6,7-Dihydro-2-(2,6-diisopropylphenoxy)-9,10-dimethoxy-4H-pyrimido-[6,1-a]isoquinolin-4-one] | inhibit the contractile responses with a long duration of action | 24.9 ± 5.0 min | >240 min | inhibition of the contractile response to electrical field stimulation [3]: complete inhibition; IC50 [4]: 2900 nM; IC50 [5]: 107 nM; IC50 [6]: 1200 nM; IC50 ([1]; n = 6): 250 nM; protection against histamine induced bronchospasm (total airway resistance) ([7]; conscious guinea-pigs exposed to dry powder (25% in lactose)): significant protection against histamine induced bronchospasm; effect on mean arterial blood pressure ([7]; guinea-pigs, inhaled dry powder (25%)): without changing mean arterial blood pressure; effect on mean arterial blood pressure [8]: dose dependant reduction in mean arterial blood pressure; recruitment of eosinophils to the lungs following antigen challenge [9]: significantly inhibited |
